{"source": "ChEMBL document CHEMBL3580594", "about": "“Synthesis and biological evaluation of 4-substituted fluoronucleoside analogs for the treatment of hepatitis B virus infection” (J Med Chem, 2015)", "key": {"[1]": {"system": "Hepatitis B virus", "experiment": "Antiviral activity against Hepatitis B virus in HepG2.CW cells assessed as inhibition of viral DNA replication at 1 uM after 9 days by real-time FQ-PCR analysis", "format": "functional", "conditions": "216 h"}, "[2]": {"experiment": "Cytotoxicity against human HepG2.2.15 cells by MTT assay", "format": "cell-based, HepG2 2.2.15"}, "[3]": {"system": "Mus musculus", "experiment": "Acute toxicity in KM mouse assessed as morbidity at 3 g/kg, iv suspended in 0.5% CMC/Na solution after 14 days", "format": "organism-based", "conditions": "in vivo, 3000 mg/kg, 336 h"}, "[4]": {"system": "Mus musculus", "experiment": "Acute toxicity in KM mouse assessed as mortality at 3 g/kg, iv suspended in 0.5% CMC/Na solution after 14 days", "format": "organism-based", "conditions": "in vivo, 3000 mg/kg, 336 h"}, "[5]": {"system": "Mus musculus", "experiment": "Toxicity in KM mouse assessed as peripheral WBC number in blood per liter at 40 mg/kg, po single dose after 48 hrs (reference value: 11.10 x 2.69/L x 10^-9)", "format": "organism-based", "conditions": "in vivo"}, "[6]": {"system": "Mus musculus", "experiment": "Toxicity in KM mouse assessed as peripheral WBC number in blood per liter at 80 mg/kg, po single dose after 48 hrs (reference value: 11.10 x 2.69/L x 10^-9)", "format": "organism-based", "conditions": "in vivo"}, "[7]": {"system": "Mus musculus", "experiment": "Toxicity in KM mouse assessed as micronucleus frequency in bone marrow polychromatic erythrocyte at 40 mg/kg, po single dose after 48 hrs (reference value: 2.20 +/- 0.84 %)", "format": "organism-based", "conditions": "in vivo"}, "[8]": {"system": "Mus musculus", "experiment": "Toxicity in KM mouse assessed as peripheral WBC number in blood per liter at 5 mg/kg/day, po 5 doses (reference value: 7.47 +/- 33.77 /L x 10^-9 cells)", "format": "organism-based", "conditions": "in vivo"}, "[9]": {"system": "Mus musculus", "experiment": "Toxicity in KM mouse assessed as micronucleus frequency in bone marrow polychromatic erythrocyte at 5 mg/kg, po single dose after 48 hrs (reference value: 1.20 +/- 0.45 %)", "format": "organism-based", "conditions": "in vivo"}, "[10]": {"system": "Hepatitis B virus", "experiment": "Antiviral activity against Hepatitis B virus in HepG2.2.15 cells assessed as inhibition of intracellular viral DNA replication at 0.2 uM after 3 days by real-time FQ-PCR analysis", "format": "functional", "conditions": "HepG2 2.2.15, 72 h"}, "[11]": {"system": "Hepatitis B virus", "experiment": "Antiviral activity against Hepatitis B virus in HepG2.2.15 cells assessed as inhibition of intracellular viral DNA replication at 0.2 uM after 6 days by real-time FQ-PCR analysis", "format": "functional", "conditions": "HepG2 2.2.15, 144 h"}, "[12]": {"system": "Hepatitis B virus", "experiment": "Antiviral activity against Hepatitis B virus in HepG2.2.15 cells assessed as inhibition of intracellular viral DNA replication at 1 uM after 6 days by real-time FQ-PCR analysis", "format": "functional", "conditions": "HepG2 2.2.15, 144 h"}, "[13]": {"system": "Hepatitis B virus", "experiment": "Antiviral activity against Hepatitis B virus in HepG2.2.15 cells assessed as inhibition of intracellular viral DNA replication at 1 uM after 9 days by real-time FQ-PCR analysis", "format": "functional", "conditions": "HepG2 2.2.15, 216 h"}, "[14]": {"system": "Hepatitis B virus", "experiment": "Antiviral activity against Hepatitis B virus in HepG2.2.15 cells assessed as inhibition of extracellular viral DNA replication at 1 uM after 6 days by real-time FQ-PCR analysis", "format": "functional", "conditions": "HepG2 2.2.15, 144 h"}, "[15]": {"system": "Hepatitis B virus", "experiment": "Antiviral activity against Hepatitis B virus in HepG2.2.15 cells assessed as inhibition of extracellular viral DNA replication at 5 uM after 6 days by real-time FQ-PCR analysis", "format": "functional", "conditions": "HepG2 2.2.15, 144 h"}, "[16]": {"system": "Hepatitis B virus", "experiment": "Antiviral activity against Hepatitis B virus in HepG2.2.15 cells assessed as inhibition of extracellular viral DNA replication at 1 uM after 9 days by real-time FQ-PCR analysis", "format": "functional", "conditions": "HepG2 2.2.15, 216 h"}, "[17]": {"system": "Hepatitis B virus", "experiment": "Antiviral activity against Hepatitis B virus in HepG2.2.15 cells assessed as inhibition of extracellular viral DNA replication at 5 uM after 9 days by real-time FQ-PCR analysis", "format": "functional", "conditions": "HepG2 2.2.15, 216 h"}, "[18]": {"system": "Duck hepatitis B virus", "experiment": "Antiviral activity against duck Hepatitis B virus infected in po dosed duck assessed as inhibition of viral DNA replication in serum", "format": "functional, organism-based"}, "[19]": {"system": "Duck hepatitis B virus", "experiment": "Antiviral activity against duck Hepatitis B virus infected in duck assessed as inhibition of viral DNA replication in liver at 0.04 to 20 mg/kg, po", "format": "functional, organism-based", "conditions": "TDE = time-dependent effect"}, "[20]": {"system": "Duck hepatitis B virus", "experiment": "Antiviral activity against duck Hepatitis B virus infected in duck assessed as inhibition of viral DNA replication in serum at 0.04 mg/kg/day, po treatment initiated at day 5 after infection relative to control", "format": "functional", "conditions": "120 h"}, "[21]": {"system": "Duck hepatitis B virus", "experiment": "Antiviral activity against duck Hepatitis B virus infected in duck assessed as inhibition of viral DNA replication in serum at 0.2 mg/kg/day, po treatment initiated at day 5 after infection relative to control", "format": "functional", "conditions": "120 h"}, "[22]": {"system": "Duck hepatitis B virus", "experiment": "Antiviral activity against duck Hepatitis B virus infected in duck assessed as inhibition of viral DNA replication in serum at 1 mg/kg/day, po treatment initiated at day 10 after infection relative to control", "format": "functional", "conditions": "240 h"}, "[23]": {"system": "Duck hepatitis B virus", "experiment": "Antiviral activity against duck Hepatitis B virus infected in duck assessed as inhibition of viral DNA replication in serum at 0.04 mg/kg/day, po measured after 3 days of treatment withdrawal", "format": "functional", "conditions": "72 h"}, "[24]": {"system": "Duck hepatitis B virus", "experiment": "Antiviral activity against duck Hepatitis B virus infected in duck assessed as inhibition of viral DNA replication in serum at 0.2 mg/kg/day, po measured after 3 days of treatment withdrawal", "format": "functional", "conditions": "72 h"}, "[25]": {"system": "Duck hepatitis B virus", "experiment": "Antiviral activity against duck Hepatitis B virus infected in duck assessed as inhibition of viral DNA replication in serum at 1 mg/kg/day, po measured after 3 days of treatment withdrawal", "format": "functional", "conditions": "72 h"}, "[26]": {"system": "Duck hepatitis B virus", "experiment": "Antiviral activity against duck Hepatitis B virus infected in duck assessed as inhibition of viral DNA replication in liver at 0.2 mg/kg/day, po treatment initiated at day 5 after infection relative to control", "format": "functional", "conditions": "120 h"}, "[27]": {"system": "Duck hepatitis B virus", "experiment": "Antiviral activity against duck Hepatitis B virus infected in duck assessed as inhibition of viral DNA replication in liver at 1 mg/kg/day, po treatment initiated at day 10 after infection relative to control", "format": "functional", "conditions": "240 h"}, "[28]": {"system": "Duck hepatitis B virus", "experiment": "Antiviral activity against duck Hepatitis B virus infected in duck assessed as inhibition of viral DNA replication in liver at 0.04 mg/kg/day, po measured after 3 days of treatment withdrawal", "format": "functional", "conditions": "72 h"}, "[29]": {"system": "Duck hepatitis B virus", "experiment": "Antiviral activity against duck Hepatitis B virus infected in duck assessed as inhibition of viral DNA replication in liver at 1 mg/kg/day, po measured after 3 days of treatment withdrawal", "format": "functional", "conditions": "72 h"}, "[30]": {"system": "Liver microsome", "experiment": "Drug metabolism in rat liver microsomes assessed as 1-((2R,3S,4R,5R)-5-azido-3-fluoro-4-hydroxy-5-(hydroxymethyl)tetrahydrofuran-2-yl)-4-(2-hydroxycyclopropylamino)pyrimidin-2(1H)-one formation after 2 hrs by LC-MS/MS analysis", "format": "ADME"}, "[31]": {"system": "Rattus norvegicus", "experiment": "In vivo drug metabolism in rat plasma sample assessed as 1-((2R,3S,4R,5R)-5-azido-3-fluoro-4-hydroxy-5-(hydroxymethyl)tetrahydrofuran-2-yl)-4-(2-hydroxycyclopropylamino)pyrimidin-2(1H)-one formation by LC-MS/MS analysis", "format": "ADME, organism-based"}, "[32]": {"species_on_record": "Rattus norvegicus", "experiment": "Drug metabolism in rat urine sample assessed as 4-amino-1-((2R,3S,4R,5R)-5-azido-3-fluoro-4-hydroxy-5-(hydroxymethyl)tetrahydrofuran-2-yl)pyrimidin-2(1H)-one formation by LC-MS/MS analysis", "format": "ADME, organism-based", "conditions": "in vivo"}, "[33]": {"species_on_record": "Rattus norvegicus", "experiment": "Drug metabolism in rat urine sample assessed as 4-amino-1-((2R,3S,4R,5R)-5-azido-3-fluoro-4-hydroxy-5-(hydroxymethyl)tetrahydrofuran-2-yl)pyrimidin-2(1H)-one formation by NMR spectrum", "format": "ADME, organism-based", "conditions": "in vivo"}}}
{"smiles": "[N-]=[N+]=N[C@]1(CO)O[C@@H](n2ccc(NC3CC3)nc2=O)[C@@H](F)[C@@H]1O", "values": [{"measurement": "inhibition at 1 µM", "setting": "[1]", "result": 86.6, "unit": "%"}, {"measurement": "CC50", "setting": "[2]", "result": 391, "unit": "µM"}, {"measurement": "Activity", "setting": "[3]", "result": "Non-toxic"}, {"measurement": "Activity", "setting": "[4]", "result": "Non-toxic"}, {"measurement": "Activity", "setting": "[5]", "result": 9.13, "unit": "×10⁹ /L"}, {"measurement": "Activity", "setting": "[6]", "result": 8.26, "unit": "×10⁹ /L"}, {"measurement": "Activity", "setting": "[7]", "result": 1.4, "unit": "%"}, {"measurement": "Activity", "setting": "[8]", "result": 6.05, "unit": "×10⁹ /L"}, {"measurement": "Activity", "setting": "[9]", "result": 1.2, "unit": "%"}, {"measurement": "inhibition at 0.2 µM", "setting": "[10]", "result": 20.6, "unit": "%"}, {"measurement": "inhibition at 0.2 µM", "setting": "[11]", "result": 31.7, "unit": "%"}, {"measurement": "inhibition at 1 µM", "setting": "[12]", "result": 49.5, "unit": "%"}, {"measurement": "inhibition at 1 µM", "setting": "[13]", "result": 56.9, "unit": "%"}, {"measurement": "inhibition at 1 µM", "setting": "[14]", "result": 76.7, "unit": "%"}, {"measurement": "inhibition at 5 µM", "setting": "[15]", "result": 84, "unit": "%"}, {"measurement": "inhibition at 1 µM", "setting": "[16]", "result": 76.2, "unit": "%"}, {"measurement": "inhibition at 5 µM", "setting": "[17]", "result": 87.6, "unit": "%"}, {"measurement": "inhibition", "setting": "[18]", "result": "Dose-dependent effect"}, {"measurement": "inhibition", "setting": "[19]", "result": "tde"}, {"measurement": "inhibition in vivo at 0.04 mg/kg/day", "setting": "[20]", "result": 48.1, "unit": "%"}, {"measurement": "inhibition in vivo at 0.2 mg/kg/day", "setting": "[21]", "result": 62.5, "unit": "%"}, {"measurement": "inhibition in vivo at 1 mg/kg/day", "setting": "[22]", "result": 74.2, "unit": "%"}, {"measurement": "inhibition in vivo at 0.04 mg/kg/day", "setting": "[23]", "result": 47.1, "unit": "%"}, {"measurement": "inhibition in vivo at 0.2 mg/kg/day", "setting": "[24]", "result": 66, "unit": "%"}, {"measurement": "inhibition in vivo at 1 mg/kg/day", "setting": "[25]", "result": 69.9, "unit": "%"}, {"measurement": "inhibition in vivo at 0.2 mg/kg/day", "setting": "[26]", "result": 52.7, "unit": "%"}, {"measurement": "inhibition in vivo at 1 mg/kg/day", "setting": "[27]", "result": 82.1, "unit": "%"}, {"measurement": "inhibition in vivo at 0.04 mg/kg/day", "setting": "[28]", "result": 58.8, "unit": "%"}, {"measurement": "inhibition in vivo at 1 mg/kg/day", "setting": "[29]", "result": 76.1, "unit": "%"}, {"measurement": "Drug metabolism", "setting": "[30]", "result": "metabolite_detected"}, {"measurement": "Drug metabolism", "setting": "[31]", "result": "metabolite_detected"}, {"measurement": "Drug metabolism", "setting": "[32]", "result": "metabolite_detected"}, {"measurement": "Drug metabolism", "setting": "[33]", "result": "metabolite_detected"}]}
